Like-named read-outs stand apart in the source and are kept apart here.
Tested on: apoE secretion by THP-1 cell line
Format: cell-based, human
Conditions: THP-1 cells, 3 days
From the text: The hydroxyphosphonates (Ia) and phosphonophosphates (Ib) of the invention can modulate (increase or decrease) the apoE production in plasma and in tissues. The activities of the compounds can be determined in an in vitro cell assay consisting in determining the effect of the test compound in modulating the secretion of apoE by an apoE secreting cell line (e.g., a monocyte-macrophage cell line such as the THP-1 cell line; a liver derived cell line such as the HepG2 cell line, an intestinal derived cell line such as the CaCo2 cell line or a brain derived cell line such as the astrocytoma CCF-STTG1 cell line).
THP-1 cell line (ATCC TIB-202) are cultured in RPMI 1640 (with 2 mM of L-glutamine and 2 g/l of glucose, Invitrogen) supplemented with 2 g/l of sodium hydrogen carbonate (Fluka), 10 U/ml of penicillin, 10 μg/ml of streptomycin (Penicillin-Streptomycin, Invitrogen), 20 μM of 2-mercaptoethanol (Fluka) and 10% FCS (Amimed). Cells are incubated at 37° C. and 5% CO2.
Cells are seeded in 24 well tissue culture plates (Falcon), 2×10^5 cells in 500 μl of culture medium per well or 6 well plates for RT-PCR purpose, 1×10^6 cells in 2.5 ml of medium. PMA (Phorbol 12-myristate 13-acetate, Alexis), (stock in DMSO (Fluka) at 1 mg/ml) and other compounds are diluted in ethanol and added to the cells at an ethanol final concentration not exceeding 1%. Same volume of ethanol is added in controls. Plates are incubated for 3 days at 37° C. and 5% CO2 to allow cell differentiation and apoE secretion.
Medium contained in the wells is harvested and centrifuged 5 min at 1200 rpm. Supernatants are store at −20° C. until apoE quantification. The cell pellets are resuspended in PBS and counted with a Z1 Coulter Counter. After a wash with PBS, adherent cells in the well bottoms are detached with trypsin-EDTA solution 10× (Invitrogen) diluted in PBS. The reaction is stopped with the addition of culture medium and the detached cells are counted.
ApoE was quantified by ELISA. 96 well plates (Costar) are coated with 5% of gelatine (from porcine skin, Fluka) in carbonate-bicarbonate buffer (Sigma) for 1 hour at 37° C. After removing the coating solution, 100 μl of THP-1 supernatant are added per well, diluted 5 times in buffer (PBS, 1% Top-Block (Juro), 0.1% Tween 20 (Fluka)). The incubation last 1 hour at 37° C., then the wells are washed 3 times with 200 μl of buffer. Plates are incubated for 1 hour at 37° C. with continuous stirring with the primary antibody (goat anti-human apoE IgG, Calbiochem) at a 10000-time dilution in buffer, 100 μl per well. After 3 washes, plates are incubated with the secondary antibody (rabbit anti-goat-IgG peroxidase conjugated, Sigma) diluted 5000 times, 100 μl per well, at 37° C. with shaking. Then the wells are washed 5 more times and the detection is achieved by adding 100 μl per well of o-phenylenediamine dihydrochloride (Sigma) and incubated for 15-20 minutes with shaking at room temperature. When the appropriated colour is reached, the reaction is stopped by adding 50 μl per well of 3 M sulfuric acid (Fluka) with shaking for 1 minute at room temperature. The absorbance is read at 492 nm versus 620 nm with a microplate photometer (Anthos Reader 2001).

CCOP(=O)(OCC)OC(c1cccc(OCc2cccnc2)c1)P(=O)(OCC)OCC (stereo not drawn) [Dietbyl 1-(diethoxy-phosphinyloxy)-1-[3-(pyridin-3-yl-methoxy)-phenyl]-methylphosphonate]
% ApoE Change (compound 25 μM, 1.25 nM PMA): 52% | % ApoE Change (compound 25 μM, 2.5 nM PMA): 15% | % ApoE Change (compound 50 μM, 1.25 nM PMA): 551% | % ApoE Change (compound 50 μM, 2.5 nM PMA): 6% | % ApoE Change (compound 100 μM, 1.25 nM PMA): 1351% | % ApoE Change (compound 100 μM, 2.5 nM PMA): 98%

CCOP(=O)(OCC)OC(c1ccc(OCc2cccnc2)cc1)P(=O)(OCC)OCC (stereo not drawn) [Diethyl 1-(diethoxy-phosphinyloxy)-1-[4-(pyridin-3-yl-methoxy)-pheny]-methylphosphonate]
% ApoE Change (compound 25 μM, 1.25 nM PMA): 95% | % ApoE Change (compound 25 μM, 2.5 nM PMA): 179% | % ApoE Change (compound 50 μM, 1.25 nM PMA): 189% | % ApoE Change (compound 50 μM, 2.5 nM PMA): 245% | % ApoE Change (compound 100 μM, 1.25 nM PMA): 535% | % ApoE Change (compound 100 μM, 2.5 nM PMA): 434%

CCOP(=O)(OCC)C(O)c1ccc(OCCCN2C(=O)c3ccccc3C2=O)cc1 (stereo not drawn) [Diethyl 1-hydroxy-1-{4-[3-N-phthalimido-propoxy]-phenyl}-methylphosphonate]
% ApoE Change (compound 25 μM, 1.25 nM PMA): 543% | % ApoE Change (compound 25 μM, 2.5 nM PMA): 304% | % ApoE Change (compound 50 μM, 1.25 nM PMA): 961% | % ApoE Change (compound 50 μM, 2.5 nM PMA): 396% | % ApoE Change (compound 100 μM, 1.25 nM PMA): 1436% | % ApoE Change (compound 100 μM, 2.5 nM PMA): 465%

CCOP(=O)(OCC)OC(c1cc(OC)c2c(c1)OCO2)P(=O)(OCC)OCC (stereo not drawn) [Diethyl 1-(diethoxy-phosphinyloxy)-1-[4-(3-methoxy-4,5-methylenedioxy)-phenyl]-methylphosphonate]
% ApoE Change (compound 25 μM, 1.25 nM PMA): −19% | % ApoE Change (compound 25 μM, 2.5 nM PMA): 7% | % ApoE Change (compound 50 μM, 1.25 nM PMA): 3% | % ApoE Change (compound 50 μM, 2.5 nM PMA): −5% | % ApoE Change (compound 100 μM, 1.25 nM PMA): 33% | % ApoE Change (compound 100 μM, 2.5 nM PMA): 40%

CCOP(=O)(OCC)C(O)c1ccc(OCc2ccccn2)cc1 (stereo not drawn) [Diethyl 1-hydroxy-1-[4-(pyridin-2-yl-methoxy)-phenyl]-methlyphosphonate]
% ApoE Change (compound 25 μM, 1.25 nM PMA): −9% | % ApoE Change (compound 25 μM, 2.5 nM PMA): 0% | % ApoE Change (compound 50 μM, 1.25 nM PMA): 24% | % ApoE Change (compound 50 μM, 2.5 nM PMA): 3% | % ApoE Change (compound 100 μM, 1.25 nM PMA): 76% | % ApoE Change (compound 100 μM, 2.5 nM PMA): 100%

CCOP(=O)(OCC)OC(c1ccc(-c2ccccc2)cc1)P(=O)(OCC)OCC (stereo not drawn) [Diethyl 1-(diethoxy-phosphinyloxy)-1-(biphenyl-4-yl)-methyiphosphonate]
% ApoE Change (compound 25 μM, 1.25 nM PMA): 172% | % ApoE Change (compound 25 μM, 2.5 nM PMA): 138% | % ApoE Change (compound 50 μM, 1.25 nM PMA): 198% | % ApoE Change (compound 50 μM, 2.5 nM PMA): 119% | % ApoE Change (compound 100 μM, 1.25 nM PMA): 142% | % ApoE Change (compound 100 μM, 2.5 nM PMA): 71%

CCOP(=O)(OCC)OC(c1cccc(OCCCCCN2C(=O)c3ccccc3C2=O)c1)P(=O)(OCC)OCC (stereo not drawn) [Diethyl 1-(diethoxy-phosphinyloxy)-1-[3-(5-N-phthalimido-pentoxy)-phenyl]-methylphosphonate]
% ApoE Change (compound 25 μM, 1.25 nM PMA): 3375% | % ApoE Change (compound 25 μM, 2.5 nM PMA): 1196% | % ApoE Change (compound 50 μM, 1.25 nM PMA): 1526% | % ApoE Change (compound 50 μM, 2.5 nM PMA): 310% | % ApoE Change (compound 100 μM, 1.25 nM PMA): −93% | % ApoE Change (compound 100 μM, 2.5 nM PMA): −92%

Reference: patent US20060128667A1, “Hydroxyphosphonates and phosphonophosphates as apolipoprotein e modulators” (priority 2002, published 2006)
